Results: article PMC12141046 (2025)
Each block holds one molecule with its values, some of them ahead of it.

Key:
[1] = tested on: G4 MYC (DNA, G4) TGAGGGTGGGTAGGGTGGGTAA; assay: CD titration; conditions: 100 mM Li+, 10 mM Tris-HCl pH 7.4, 20 °C, 10 µM DNA
[2] = tested on: G4 MYC (DNA, G4) TGAGGGTGGGTAGGGTGGGTAA; assay: fluorescent intercalator displacement; conditions: 100 mM K+, 10 mM lithium cacodylate pH 7.3, thiazole orange displaced
[3] = tested on: G4 KIT1 (DNA, G4) AGGGAGGGCGCTGGGAGGAGGG; assay: CD titration; conditions: 100 mM Li+; 10 mM Tris-HCl pH 7.4, 20 °C; 10 µM DNA; 405 nm illuminated; G4 induction
[4] = tested on: dsDNA (DNA, duplex) CAATCGGATCGAATTCGATCCGATTG; assay: fluorescent intercalator displacement; conditions: 100 mM K+, 10 mM lithium cacodylate pH 7.3, thiazole orange displaced

- binding ([1]; 405 nm illuminated, parallel G4 induction): yes
- DC50 ([2]; normalized to trans isomer): 1.15 ± 0.06 µM
- apparent Kd ([2]; derived from DC50 normalized to trans isomer): 0.46 ± 0.02 µM
- binding [3]: yes
- binding ([4]; 405 nm illuminated): no
Compound: NCCOc1cc(NC(=O)c2ccc3c(c2)/N=N/c2cc(C4=CCNCC4)ccc2CC3)nc2ccccc12

- binding ([1]; dark, slight shift at 30 µM): weak
- DC50 ([2]; dark): 12.46 ± 0.65 µM
- apparent Kd ([2]; dark, b14 prints error as 0.65): 4.97 ± 0.26 µM
- binding ([4]; dark): no
Compound: NCCOc1cc(NC(=O)c2ccc3c(c2)/N=N\c2cc(C4=CCNCC4)ccc2CC3)nc2ccccc12

- apparent Kd [2]: 0.94 ± 0.03 µM
Compound: NCCOc1cc(NC(=O)c2ccc3c(c2)/N=N/c2cc(-c4ccc5ncccc5c4)ccc2CC3)nc2ccccc12

- apparent Kd [2]: 0.76 ± 0.13 µM
Compound: NCCOc1cc(NC(=O)c2ccc3c(c2)/N=N/c2cc(-c4ccc(N5CCCCC5)cc4)ccc2CC3)nc2ccccc12

- DC50 ([2]; normalized to trans isomer): 1.58 ± 0.05 µM
- apparent Kd ([2]; derived from normalized DC50): 0.63 ± 0.02 µM
- binding ([4]; highest 5 µM, 405 nm illuminated): no
Compound: NCCOc1cc(NC(=O)c2ccc3c(c2)/N=N/c2cc(C4=CCN(CCNC(=O)CCOCCOCCOCCOCCNC(=O)CCCC[C@@H]5SC[C@@H]6NC(=O)N[C@@H]65)CC4)ccc2CC3)nc2ccccc12

- apparent Kd [2]: 1.00 ± 0.03 µM
Compound: NCCOc1cc(NC(=O)c2ccc3c(c2)/N=N/c2cc(-c4ccc5cccnc5c4)ccc2CC3)nc2ccccc12

- apparent Kd [2]: 0.97 ± 0.06 µM
Compound: NCCOc1cc(NC(=O)c2ccc3c(c2)/N=N/c2cc(-c4cnc5ccccc5c4)ccc2CC3)nc2ccccc12
